Measurements from ChEMBL document CHEMBL1201861, “Genomics of Drug Sensitity in Cancer screening data, Wellcome Trust Sanger Institute”.

Experiments:
Test in all cases: cells
BT-474 = type: functional, cell-based, Homo sapiens; details: Homo sapiens, BT-474
Description: SANGER: Inhibition of human BT-474 cell growth in a cell viability assay.

KS-1 = type: functional, cell-based, Homo sapiens; details: Homo sapiens, KS-1;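 also: growth inhibition of KS-1 cells, read out with a cell viability assay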
Description: SANGER: Inhibition of human KS-1 cell growth in a cell viability assay.

CW-2 = type: functional, cell-based, Homo sapiens; details: Homo sapiens, CW-2;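 also: growth inhibition of CW-2 cells, read out by a cell viability assay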
Description: SANGER: Inhibition of human CW-2 cell growth in a cell viability assay.

NCI-H209 = type: functional, cell-based, Homo sapiens; details: Homo sapiens, NCI-H209;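 also: growth inhibition of human NCI-H209 cells, measured by a cell viability assay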
Description: SANGER: Inhibition of human NCI-H209 cell growth in a cell viability assay.

Ramos-2G6-4C10 = type: functional, cell-based, Homo sapiens; details: Homo sapiens, Ramos-2G6-4C10;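 also: growth inhibition of the cell line, measured by a cell viability read-out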
Description: SANGER: Inhibition of human Ramos-2G6-4C10 cell growth in a cell viability assay.

697 = type: functional, cell-based, Homo sapiens; details: Homo sapiens
Description: SANGER: Inhibition of human 697 cell growth in a cell viability assay.

SNU-C2B = type: functional, cell-based, Homo sapiens; details: Homo sapiens, SNU-C2B;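 also: cell viability readout used to measure compound-driven suppression of SNU-C2B cell proliferation, IC50 marking half-maximal growth inhibition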
Description: SANGER: Inhibition of human SNU-C2B cell growth in a cell viability assay.

GCIY = type: functional, cell-based, Homo sapiens; details: Homo sapiens, GCIY;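 also: growth inhibition of the human GCIY cell line, read out by a cell viability assay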
Description: SANGER: Inhibition of human GCIY cell growth in a cell viability assay.

SK-NEP-1 = type: functional, cell-based, Homo sapiens; details: Homo sapiens, SK-NEP-1;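 also: growth inhibition of human SK-NEP-1 cells, read out by a cell viability assay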
Description: SANGER: Inhibition of human SK-NEP-1 cell growth in a cell viability assay.

PSN1 = type: functional, cell-based, Homo sapiens; details: Homo sapiens, PSN1;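 also: suppression of growth of human PSN1 cells, read out by a cell viability assay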
Description: SANGER: Inhibition of human PSN1 cell growth in a cell viability assay.

SCC-15 = type: functional, cell-based, Homo sapiens; details: Homo sapiens, SCC-15;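 also: growth inhibition of SCC-15 cells, read out with a cell viability assay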
Description: SANGER: Inhibition of human SCC-15 cell growth in a cell viability assay.

SBC-1 = type: functional, cell-based, Homo sapiens; details: Homo sapiens, SBC-1;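 also: cell viability assay measuring growth inhibition of the SBC-1 cell line, IC50 being the concentration that halves growth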
Description: SANGER: Inhibition of human SBC-1 cell growth in a cell viability assay.

HEL = type: functional, cell-based, Homo sapiens; details: Homo sapiens, HEL;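 also: growth inhibition of HEL cells, read out with a cell viability assay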
Description: SANGER: Inhibition of human HEL cell growth in a cell viability assay.

LAN-6 = type: functional, cell-based, Homo sapiens; details: Homo sapiens, LAN-6;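 also: growth inhibition of LAN-6 cells, determined with a cell viability assay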
Description: SANGER: Inhibition of human LAN-6 cell growth in a cell viability assay.

SW 954 = type: functional, cell-based, Homo sapiens; details: Homo sapiens, SW 954;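 also: growth inhibition of SW954 human cancer cells, read out as cell viability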
Description: SANGER: Inhibition of human SW954 cell growth in a cell viability assay.

KARPAS-299 = type: functional, cell-based, Homo sapiens; details: Homo sapiens, KARPAS-299
Description: SANGER: Inhibition of human KARPAS-299 cell growth in a cell viability assay.

NCI-H1155 = type: functional, cell-based, Homo sapiens; details: Homo sapiens, NCI-H1155;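 also: cell growth inhibition measured by a viability assay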
Description: SANGER: Inhibition of human NCI-H1155 cell growth in a cell viability assay.

U-87 MG = type: functional, cell-based, Homo sapiens, U-87MG ATCC; details: Homo sapiens, U-87 MG;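 also: growth inhibition of the cells measured with a viability assay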
Description: SANGER: Inhibition of human U-87-MG cell growth in a cell viability assay.

EW-16 = type: functional, cell-based, Homo sapiens; details: Homo sapiens, EW-16;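 also: growth inhibition of human EW-16 cells, read out as cell viability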
Description: SANGER: Inhibition of human EW-16 cell growth in a cell viability assay.

NCI-H1304 = type: functional, cell-based, Homo sapiens; details: Homo sapiens, NCI-H1304;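 also: growth inhibition of the cancer cell line, measured in a cell viability assay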
Description: SANGER: Inhibition of human NCI-H1304 cell growth in a cell viability assay.

SW684 = type: functional, cell-based, Homo sapiens; details: Homo sapiens, SW684;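 also: growth inhibition of human SW684 cells, measured by a cell viability assay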
Description: SANGER: Inhibition of human SW684 cell growth in a cell viability assay.

MN-60 = type: functional, cell-based, Homo sapiens; details: Homo sapiens, MN-60;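 also: growth inhibition of the MN-60 cell line, determined with a cell viability assay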
Description: SANGER: Inhibition of human MN-60 cell growth in a cell viability assay.

TE-8 = type: functional, cell-based, Homo sapiens; details: Homo sapiens, TE-8;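 also: growth inhibition of TE-8 cells, measured with a cell viability readout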
Description: SANGER: Inhibition of human TE-8 cell growth in a cell viability assay.

CTV-1 = type: functional, cell-based, Homo sapiens; details: Homo sapiens, CTV-1;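 also: growth inhibition of the cell line, read out with a cell viability assay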
Description: SANGER: Inhibition of human CTV-1 cell growth in a cell viability assay.

SNU-5 = type: functional, cell-based, Homo sapiens; details: Homo sapiens, SNU-5;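 also: cell viability readout used to measure growth inhibition in human NCI-SNU-5 cells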
Description: SANGER: Inhibition of human NCI-SNU-5 cell growth in a cell viability assay.

D283 Med = type: functional, cell-based, Homo sapiens; details: Homo sapiens, D283 Med
Description: SANGER: Inhibition of human D-283MED cell growth in a cell viability assay.

AM-38 = type: functional, cell-based, Homo sapiens; details: Homo sapiens, AM-38;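 also: growth inhibition of AM-38 cells of human origin, read out by a cell viability assay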
Description: SANGER: Inhibition of human AM-38 cell growth in a cell viability assay.

NCI-H69 = type: functional, cell-based, Homo sapiens; details: Homo sapiens, NCI-H69;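 also: growth inhibition of the cell line, read out with a cell viability assay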
Description: SANGER: Inhibition of human NCI-H69 cell growth in a cell viability assay.

P30-OHK = type: functional, cell-based, Homo sapiens; details: Homo sapiens, P30-OHK;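 also: growth inhibition of the P30-OHK cell line, read out with a cell viability assay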
Description: SANGER: Inhibition of human P30-OHK cell growth in a cell viability assay.

NB5 = type: functional, cell-based, Homo sapiens; details: Homo sapiens, NB5;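 also: growth inhibition of NB5 cells, read out as cell viability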
Description: SANGER: Inhibition of human NB5 cell growth in a cell viability assay.

ATN-1 = type: functional, cell-based, Homo sapiens; details: Homo sapiens, ATN-1;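 also: growth inhibition of human ATN-1 cells, read out with a cell viability assay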
Description: SANGER: Inhibition of human ATN-1 cell growth in a cell viability assay.

IA-LM = type: functional, cell-based, Homo sapiens; details: Homo sapiens, IA-LM;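 also: cell viability assay measuring growth inhibition of human IA-LM cells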
Description: SANGER: Inhibition of human IA-LM cell growth in a cell viability assay.

A253 cell line = type: functional, cell-based, Homo sapiens; details: Homo sapiens, A253;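 also: growth inhibition of A253 cells, read out with a cell viability assay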
Description: SANGER: Inhibition of human A253 cell growth in a cell viability assay.

MSTO-211H = type: functional, cell-based, Homo sapiens; details: Homo sapiens, MSTO-211H
Description: SANGER: Inhibition of human MSTO-211H cell growth in a cell viability assay.

SNU1 = type: functional, cell-based, Homo sapiens; details: Homo sapiens, SNU1;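 also: growth inhibition of human NCI-SNU-1 cells, measured with a cell viability assay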
Description: SANGER: Inhibition of human NCI-SNU-1 cell growth in a cell viability assay.

GT3TKB = type: functional, cell-based, Homo sapiens; details: Homo sapiens, GT3TKB;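 also: growth inhibition of the cell line, read out with a cell viability assay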
Description: SANGER: Inhibition of human GT3TKB cell growth in a cell viability assay.

EC-GI-10 = type: functional, cell-based, Homo sapiens; details: Homo sapiens, EC-GI-10
Description: SANGER: Inhibition of human EC-GI-10 cell growth in a cell viability assay.

MHH-PREB-1 = type: functional, cell-based, Homo sapiens; details: Homo sapiens, MHH-PREB-1;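 also: cell viability assay measuring inhibition of proliferation of human MHH-PREB-1 cells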
Description: SANGER: Inhibition of human MHH-PREB-1 cell growth in a cell viability assay.

SW982 = type: functional, cell-based, Homo sapiens; details: Homo sapiens, SW982;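 also: growth inhibition of SW982 cells, read out with a cell viability assay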
Description: SANGER: Inhibition of human SW982 cell growth in a cell viability assay.

NCI-H2126 = type: functional, cell-based, Homo sapiens; details: Homo sapiens, NCI-H2126;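 also: growth inhibition of the cancer cell line, determined with a cell viability readout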
Description: SANGER: Inhibition of human NCI-H2126 cell growth in a cell viability assay.

COLO-684 = type: functional, cell-based, Homo sapiens; details: Homo sapiens, COLO-684
Description: SANGER: Inhibition of human COLO-684 cell growth in a cell viability assay.

SK-N-FI = type: functional, cell-based, Homo sapiens; details: Homo sapiens, SK-N-FI;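 also: cell viability assay measuring growth inhibition of human SK-N-FI cells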
Description: SANGER: Inhibition of human SK-N-FI cell growth in a cell viability assay.

LB2518-MEL = type: functional, cell-based, Homo sapiens; details: Homo sapiens, LB2518-MEL;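 also: growth inhibition of human LB2518-MEL cells, measured with a cell viability assay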
Description: SANGER: Inhibition of human LB2518-MEL cell growth in a cell viability assay.

HCC1187 = type: functional, cell-based, Homo sapiens; details: Homo sapiens, HCC1187;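 also: growth inhibition of HCC1187 cells, read out with a cell viability assay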
Description: SANGER: Inhibition of human HCC1187 cell growth in a cell viability assay.

ES4 = type: functional, cell-based, Homo sapiens; details: Homo sapiens, ES4;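 also: growth inhibition of human ES4 cells, read out by a cell viability assay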
Description: SANGER: Inhibition of human ES4 cell growth in a cell viability assay.

TE-9 = type: functional, cell-based, Homo sapiens; details: Homo sapiens, TE-9;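 also: cell growth inhibition, measured with a cell viability readout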
Description: SANGER: Inhibition of human TE-9 cell growth in a cell viability assay.

NH-12 = type: functional, cell-based, Homo sapiens; details: Homo sapiens, NH-12;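 also: growth inhibition of NH-12 cells, read out with a cell viability assay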
Description: SANGER: Inhibition of human NH-12 cell growth in a cell viability assay.

DJM-1 = type: functional, cell-based, Homo sapiens; details: Homo sapiens, DJM-1;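 also: growth inhibition of human DJM-1 cells, read out by a cell viability assay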
Description: SANGER: Inhibition of human DJM-1 cell growth in a cell viability assay.

NB13 = type: functional, cell-based, Homo sapiens; details: Homo sapiens, NB13;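 also: cell viability readout measuring growth inhibition of human NB13 cells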
Description: SANGER: Inhibition of human NB13 cell growth in a cell viability assay.

O=C(O)c1ccc(-c2c[nH]c3ncc(-c4ccccc4)cc23)cc1C1CCCC1 [GSK-650394]
IC50 (BT-474): > 16 µM
IC50 (KS-1): > 16 µM
IC50 (CW-2): > 16 µM
IC50 (NCI-H209): > 16 µM
IC50 (Ramos-2G6-4C10): > 16 µM
IC50 697: > 16 µM
IC50 (SNU-C2B): > 16 µM
IC50 (GCIY): > 16 µM
IC50 (SK-NEP-1): > 16 µM
IC50 (PSN1): 2.19 µM
IC50 (SCC-15): > 16 µM
IC50 (SBC-1): > 16 µM
IC50 (HEL): 10.7 µM
IC50 (LAN-6): > 16 µM
IC50 (SW 954): 4.46 µM
IC50 (KARPAS-299): > 16 µM
IC50 (NCI-H1155): > 16 µM
IC50 (U-87 MG): > 16 µM
IC50 (EW-16): 5.75 µM
IC50 (NCI-H1304): > 16 µM
IC50 (SW684): > 16 µM
IC50 (MN-60): > 16 µM
IC50 (TE-8): 4.12 µM
IC50 (CTV-1): > 16 µM
IC50 (SNU-5): > 16 µM
IC50 (D283 Med): > 16 µM
IC50 (AM-38): > 16 µM
IC50 (NCI-H69): 7.67 µM
IC50 (P30-OHK): 6.21 µM
IC50 (NB5): > 16 µM
IC50 (ATN-1): > 16 µM
IC50 (IA-LM): 4.12 µM
IC50 (A253 cell line): > 16 µM
IC50 (MSTO-211H): > 16 µM
IC50 (SNU1): > 16 µM
IC50 (GT3TKB): > 16 µM
IC50 (EC-GI-10): > 16 µM
IC50 (MHH-PREB-1): > 16 µM
IC50 (SW982): 13.8 µM
IC50 (NCI-H2126): > 16 µM
IC50 (COLO-684): > 16 µM
IC50 (SK-N-FI): > 16 µM
IC50 (LB2518-MEL): > 16 µM
IC50 (HCC1187): > 16 µM
IC50 (ES4): 4.06 µM
IC50 (TE-9): > 16 µM
IC50 (NH-12): 12.3 µM
IC50 (DJM-1): > 16 µM
IC50 (NB13): > 16 µM

CC(=O)O[C@H]1C(=O)[C@@]2(C)[C@H]([C@H](OC(=O)c3ccccc3)[C@]3(O)C[C@H](OC(=O)[C@H](O)[C@@H](NC(=O)c4ccccc4)c4ccccc4)C(C)=C1C3(C)C)[C@]1(OC(C)=O)CO[C@@H]1C[C@@H]2O [PACLITAXEL]
IC50 (BT-474): > 0.102 µM
IC50 (KS-1): 0.00582 µM
IC50 (CW-2): > 0.102 µM
IC50 (NCI-H209): 0.0979 µM
IC50 (Ramos-2G6-4C10): > 0.102 µM
IC50 697: 0.0015 µM
IC50 (SNU-C2B): 0.015 µM
IC50 (GCIY): > 0.102 µM
IC50 (SK-NEP-1): 0.0864 µM
IC50 (PSN1): 0.0013 µM
IC50 (SCC-15): > 0.102 µM
IC50 (SBC-1): 0.0504 µM
IC50 (HEL): 0.0414 µM
IC50 (LAN-6): > 0.102 µM
IC50 (SW 954): 0.00119 µM
IC50 (KARPAS-299): 0.0398 µM
IC50 (NCI-H1155): > 0.102 µM
IC50 (U-87 MG): > 0.102 µM
IC50 (EW-16): 0.00694 µM
IC50 (NCI-H1304): 0.0521 µM
IC50 (SW684): > 0.102 µM
IC50 (MN-60): > 0.102 µM
IC50 (TE-8): 0.00117 µM
IC50 (CTV-1): 0.0148 µM
IC50 (SNU-5): 0.017 µM
IC50 (D283 Med): > 0.102 µM
IC50 (AM-38): > 0.102 µM
IC50 (NCI-H69): 0.0178 µM
IC50 (P30-OHK): > 0.102 µM
IC50 (NB5): > 0.102 µM
IC50 (ATN-1): 0.00609 µM
IC50 (IA-LM): 0.0028 µM
IC50 (A253 cell line): 0.0174 µM
IC50 (MSTO-211H): > 0.102 µM
IC50 (SNU1): > 0.102 µM
IC50 (GT3TKB): 0.00434 µM
IC50 (EC-GI-10): 0.0726 µM
IC50 (MHH-PREB-1): 0.0219 µM
IC50 (SW982): 0.00766 µM
IC50 (NCI-H2126): 0.0277 µM
IC50 (COLO-684): 0.0291 µM
IC50 (SK-N-FI): > 0.102 µM
IC50 (LB2518-MEL): 0.0814 µM
IC50 (HCC1187): 0.0192 µM
IC50 (ES4): 0.00449 µM
IC50 (TE-9): 0.00326 µM
IC50 (NH-12): > 0.102 µM
IC50 (DJM-1): 0.0053 µM
IC50 (NB13): 0.00491 µM

COc1cc(-c2nn([C@H]3CC[C@H](N4CCN(C(C)=O)CC4)CC3)c3ncnc(N)c23)ccc1NC(=O)c1cc2ccccc2n1C
IC50 (BT-474): > 5.12 µM
IC50 (KS-1): 1.03 µM
IC50 (CW-2): > 5.12 µM
IC50 (NCI-H209): > 5.12 µM
IC50 (Ramos-2G6-4C10): > 5.12 µM
IC50 697: 1.73 µM
IC50 (SNU-C2B): > 5.12 µM
IC50 (GCIY): 4.03 µM
IC50 (SK-NEP-1): > 5.12 µM
IC50 (PSN1): 1.14 µM
IC50 (SCC-15): > 5.12 µM
IC50 (SBC-1): > 5.12 µM
IC50 (HEL): > 5.12 µM
IC50 (LAN-6): > 5.12 µM
IC50 (SW 954): 0.696 µM
IC50 (KARPAS-299): > 5.12 µM
IC50 (NCI-H1155): > 5.12 µM
IC50 (U-87 MG): > 5.12 µM
IC50 (EW-16): 3.59 µM
IC50 (NCI-H1304): > 5.12 µM
IC50 (SW684): > 5.12 µM
IC50 (MN-60): > 5.12 µM
IC50 (TE-8): 0.242 µM
IC50 (CTV-1): < 0.02 µM
IC50 (SNU-5): > 5.12 µM
IC50 (D283 Med): > 5.12 µM
IC50 (AM-38): > 5.12 µM
IC50 (NCI-H69): > 5.12 µM
IC50 (P30-OHK): > 5.12 µM
IC50 (NB5): > 5.12 µM
IC50 (ATN-1): > 5.12 µM
IC50 (IA-LM): > 5.12 µM
IC50 (A253 cell line): > 5.12 µM
IC50 (MSTO-211H): > 5.12 µM
IC50 (SNU1): > 5.12 µM
IC50 (GT3TKB): > 5.12 µM
IC50 (EC-GI-10): > 5.12 µM
IC50 (MHH-PREB-1): 4.85 µM
IC50 (SW982): 0.387 µM
IC50 (NCI-H2126): > 5.12 µM
IC50 (COLO-684): > 5.12 µM
IC50 (SK-N-FI): > 5.12 µM
IC50 (LB2518-MEL): > 5.12 µM
IC50 (HCC1187): > 5.12 µM
IC50 (ES4): > 5.12 µM
IC50 (TE-9): > 5.12 µM
IC50 (NH-12): > 5.12 µM
IC50 (DJM-1): > 5.12 µM
IC50 (NB13): > 5.12 µM
